According to patent publication US20210330611A1, “THERAPY FOR NEUROLOGICAL DISEASES/DISORDERS” (priority 2020, published 2021):
Structures can show the parent of a compound that is named as a salt.

Experiments:
[1] = tested on: fibrin-induced microglia activation; assay: Image-based assay of fibrin-induced microglia activation (HTS and dose response); format: cell-based, rat; conditions: primary microglia HTS, fibrin stimulation, increased cell size (>800 μm^2) as marker of activation; for inhibition at 10 µM: Rattus norvegicus, Microglia, read-out: Fibrin % inhibition
[2] = tested on: LPS-induced microglia activation; assay: Image-based assay of LPS-induced microglia activation (HTS and dose response); format: cell-based, rat; conditions: primary microglia HTS, LPS stimulation, increased cell size (>800 μm^2) as marker of activation; for inhibition at 10 µM: Rattus norvegicus, Microglia, 48 h, read-out: LPS % inhibition
[3] = tested on: fibrin- and LPS-induced microglia activation; assay: cells; format: cell-based, rat; conditions: quadrant by fibrin and LPS inhibition in HTS of 1907 compounds
primary rat microglia [4] = assay: Cell toxicity (dead cells, size <150 μm2) in LPS assay; conditions: primary microglia HTS, LPS stimulation; decreased size (<150 μm^2) as marker of toxicity
primary rat microglia [5] = assay: Cell toxicity (dead cells, size <150 μm2) in coated fibrin (cFib) assay; conditions: primary microglia HTS, fibrin stimulation; decreased size (<150 μm^2) as marker of toxicity;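 further: share of dead cells sized under 150 µm2 at 10 µM in fibrin-stimulated microglia HTS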

CN1CCc2c(c3ccccc3n2Cc2ccccc2)C1.CN1CCc2c(c3ccccc3n2Cc2ccccc2)C1.O=S(=O)(O)c1cccc2c(S(=O)(=O)O)cccc12 [Mebhydrolin Naphthalenesulfonate]
Fibrin % inhibition [1]: 4%
LPS % inhibition [2]: 17%
Quadrant (FIG. 5b) [3]: Q4
LPS % cell toxicity (primary rat microglia [4]): 0%
Fibrin % cell toxicity (primary rat microglia [5]): 1%

Cc1cccc(CN2CCN(C(c3ccccc3)c3ccc(Cl)cc3)CC2)c1 (stereo not shown) [Meclizine]
inhibition at 10 µM [1]: -33%
inhibition at 10 µM [2]: 12%
Quadrant (FIG. 5b) [3]: Q4
LPS % cell toxicity (primary rat microglia [4]): 0%
Fibrin % cell toxicity (primary rat microglia [5]): 0%

C=C1c2c(Cl)ccc(O)c2C(=O)C2=C(O)[C@]3(O)C(=O)C(C(N)=O)=C(O)[C@@H](N(C)C)[C@@H]3[C@@H](O)[C@H]12.O=C(O)c1cc(S(=O)(=O)O)ccc1O [Meclocycline Sulfosalicylate]
Fibrin % inhibition [1]: 20%
LPS % inhibition [2]: 18%
Quadrant (FIG. 5b) [3]: Q4
LPS % cell toxicity (primary rat microglia [4]): 0%
Fibrin % cell toxicity (primary rat microglia [5]): 1%

Cc1ccc(Cl)c(Nc2ccccc2C(=O)O)c1Cl [Meclofenamic Acid]
inhibition at 10 µM [1]: 12%
inhibition at 10 µM [2]: 14%
Quadrant (FIG. 5b) [3]: Q4
LPS % cell toxicity (primary rat microglia [4]): 0%
Fibrin % cell toxicity (primary rat microglia [5]): 1%

CN(C)CCOC(=O)COc1ccc(Cl)cc1 [Meclofenoxate]
inhibition at 10 µM [1]: -23%
inhibition at 10 µM [2]: 24%
Quadrant (FIG. 5b) [3]: Q4
LPS % cell toxicity (primary rat microglia [4]): 0%
Fibrin % cell toxicity (primary rat microglia [5]): 1%

COC(=O)C(N)CS (stereo not shown) [Mecysteine Hydrochloride]
inhibition at 10 µM [1]: 20%
inhibition at 10 µM [2]: 22%
Quadrant (FIG. 5b) [3]: Q4
LPS % cell toxicity (primary rat microglia [4]): 0%
Fibrin % cell toxicity (primary rat microglia [5]): 1%

CC(=O)[C@H]1CC[C@H]2[C@@H]3C[C@H](C)C4=CC(=O)CC[C@]4(C)[C@H]3[C@@H](O)C[C@]12C [Medrysone]
inhibition at 10 µM [1]: 111%
inhibition at 10 µM [2]: 87%
Quadrant (FIG. 5b) [3]: Q2
LPS % cell toxicity (primary rat microglia [4]): 4%
Fibrin % cell toxicity (primary rat microglia [5]): 4%

CCN(CC)CCNC(=O)COc1ccc(OC)cc1 [Mefexamide, Mefexamide Hydrochloride]
Fibrin % inhibition [1]: −13%
LPS % inhibition [2]: −2%
Quadrant (FIG. 5b) [3]: Q4
LPS % cell toxicity (primary rat microglia [4]): 0%
Fibrin % cell toxicity (primary rat microglia [5]): 0%

COc1ccc2[nH]cc(CCNC(C)=O)c2c1 [Melatonin]
inhibition at 10 µM [1]: 4%
inhibition at 10 µM [2]: -3%
Quadrant (FIG. 5b) [3]: Q4
LPS % cell toxicity (primary rat microglia [4]): 0%
Fibrin % cell toxicity (primary rat microglia [5]): 1%

Cc1cnc(NC(=O)C2=C(O)c3ccccc3S(=O)(=O)N2C)s1 [Meloxicam]
inhibition at 10 µM [1]: -1%
inhibition at 10 µM [2]: 20%
Quadrant (FIG. 5b) [3]: Q4
LPS % cell toxicity (primary rat microglia [4]): 0%
Fibrin % cell toxicity (primary rat microglia [5]): 1%

CC12CC3CC(C)(C1)CC(N)(C3)C2 [Memantine]
inhibition at 10 µM [1]: 2%
inhibition at 10 µM [2]: 5%
Quadrant (FIG. 5b) [3]: Q4
LPS % cell toxicity (primary rat microglia [4]): 0%
Fibrin % cell toxicity (primary rat microglia [5]): 0%

CC1=CC(=O)c2ccccc2C1=O [Menadione]
inhibition at 10 µM [1]: 113%
inhibition at 10 µM [2]: 123%
Quadrant (FIG. 5b) [3]: Q2
LPS % cell toxicity (primary rat microglia [4]): 62%
Fibrin % cell toxicity (primary rat microglia [5]): 87%

C[N+]1(C)CCCC(OC(=O)C(O)(c2ccccc2)c2ccccc2)C1 (stereo not shown) [Mepenzolate]
inhibition at 10 µM [1]: 45%
inhibition at 10 µM [2]: 34%
Quadrant (FIG. 5b) [3]: Q4
LPS % cell toxicity (primary rat microglia [4]): 1%
Fibrin % cell toxicity (primary rat microglia [5]): 1%

[O-][n+]1cccc(CO)c1 [Mepiroxol]
Fibrin % inhibition [1]: −6%
LPS % inhibition [2]: 11%
Quadrant (FIG. 5b) [3]: Q4
LPS % cell toxicity (primary rat microglia [4]): 0%
Fibrin % cell toxicity (primary rat microglia [5]): 1%

Cc1cccc(C)c1NC(=O)C1CCCCN1C (stereo not shown) [Mepivacaine]
inhibition at 10 µM [1]: 7%
inhibition at 10 µM [2]: 10%
Quadrant (FIG. 5b) [3]: Q4
LPS % cell toxicity (primary rat microglia [4]): 0%
Fibrin % cell toxicity (primary rat microglia [5]): 0%

CCCNC(C)(C)COC(=O)c1ccccc1 [Meprylcaine Hydrochloride]
inhibition at 10 µM [1]: -10%
inhibition at 10 µM [2]: 7%
Quadrant (FIG. 5b) [3]: Q4
LPS % cell toxicity (primary rat microglia [4]): 0%
Fibrin % cell toxicity (primary rat microglia [5]): 0%

Nc1ccc(O)c(C(=O)O)c1 [Mesalazine]
inhibition at 10 µM [1]: 9%
inhibition at 10 µM [2]: 19%
Quadrant (FIG. 5b) [3]: Q4
LPS % cell toxicity (primary rat microglia [4]): 0%
Fibrin % cell toxicity (primary rat microglia [5]): 1%

O=S(=O)(O)CCS [Mesna]
inhibition at 10 µM [1]: 18%
inhibition at 10 µM [2]: 5%
Quadrant (FIG. 5b) [3]: Q4
LPS % cell toxicity (primary rat microglia [4]): 0%
Fibrin % cell toxicity (primary rat microglia [5]): 1%

CC(=O)Oc1cccc(C)c1 [Meta-cresyl Acetate]
inhibition at 10 µM [1]: -7%
inhibition at 10 µM [2]: -3%
Quadrant (FIG. 5b) [3]: Q4
LPS % cell toxicity (primary rat microglia [4]): 0%
Fibrin % cell toxicity (primary rat microglia [5]): 1%

Cc1cc(C)cc(OCC2CNC(=O)O2)c1 (stereo not shown) [Metaxalone]
inhibition at 10 µM [1]: 13%
inhibition at 10 µM [2]: 6%
Quadrant (FIG. 5b) [3]: Q4
LPS % cell toxicity (primary rat microglia [4]): 0%
Fibrin % cell toxicity (primary rat microglia [5]): 1%

CN1C[C@H](CNC(=O)OCc2ccccc2)C[C@@H]2c3cccc4c3c(cn4C)C[C@H]21 [Metergoline]
inhibition at 10 µM [1]: -12%
inhibition at 10 µM [2]: 16%
Quadrant (FIG. 5b) [3]: Q4
LPS % cell toxicity (primary rat microglia [4]): 0%
Fibrin % cell toxicity (primary rat microglia [5]): 1%

CC(=O)OC(C)C[N+](C)(C)C (stereo not shown) [Methacholine]
inhibition at 10 µM [1]: 2%
inhibition at 10 µM [2]: 9%
Quadrant (FIG. 5b) [3]: Q4
LPS % cell toxicity (primary rat microglia [4]): 0%
Fibrin % cell toxicity (primary rat microglia [5]): 1%

C=C1c2cccc(O)c2C(=O)C2=C(O)[C@]3(O)C(=O)C(C(N)=O)=C(O)[C@@H](N(C)C)[C@@H]3[C@@H](O)[C@H]12 [Methacycline]
inhibition at 10 µM [1]: -10%
inhibition at 10 µM [2]: 11%
Quadrant (FIG. 5b) [3]: Q4
LPS % cell toxicity (primary rat microglia [4]): 0%
Fibrin % cell toxicity (primary rat microglia [5]): 0%
